Experimental data from patent publication US11135176B1 (Florida A&M University, priority 2016, dated 2021).

Columns and labels:
[1] = Drug solubility in 4% of surfactant, analyzed by HPLC; type: physicochemical
[2] = Solubility of IBU in lipids (visual); type: physicochemical; parameters: key to Solubility of IBU in Geleol mono and diglyceride NF / Solubility of IBU in Glyceryl monostearate / Solubility of IBU in Stearic acid / Solubility of IBU in COMPRITOL ® 888ATO / Solubility of IBU in PRECIROL ® ATO5: +: Clear or transparent mixture implies the drug is soluble in lipid; conditions: for Solubility of IBU in COMPRITOL ® 888ATO / Solubility of IBU in Geleol mono and diglyceride NF / Solubility of IBU in Glyceryl monostearate / Solubility of IBU in PRECIROL ® ATO5 / Solubility of IBU in Stearic acid: 90° C.
Procedure: The selection of lipid was done by evaluating the solubility of IBU in different lipids such as Compritol® 888ATO (glyceryl behenate), Precirol® ATOS (glyceryl palmitosterate), geleol mono and diglyceride NF, glyceryl monostearate and stearic acid. Briefly, 10 mg of IBU was weighed and added into Eppendorf tube containing 100 mg of lipid. The mixture was then heated for 10 minutes in a water bath at 90° C. to facilitate solubilization. […] Finally, total of 40 mg of drug was added in 100 mg of lipid and checked for the precipitation.

[3] = 10 mg of IBU/100 mg of solid lipid
[4] = 20 mg of IBU/100 mg of solid lipid
[5] = 30 mg of IBU/100 mg of solid lipid
[6] = 40 mg of IBU/100 mg of solid lipid

CC(C)Cc1ccc(C(C)C(=O)O)cc1 (stereo not shown) [IBU, ibuprofen]
completely soluble: solubility of IBU in the lipid ([2]; 40 of IBU, heated at 90 C, Compritol 888 ATO, Precirol ATO 5, geleol mono and diglyceride NF, glyceryl monostearate and stearic acid)
less than 5%: drug soluble in the surfactant [1]
+: Solubility of IBU in COMPRITOL ® 888ATO [2, 3] | Solubility of IBU in Geleol mono and diglyceride NF [2, 3] | Solubility of IBU in Glyceryl monostearate [2, 3] | Solubility of IBU in PRECIROL ® ATO5 [2, 3] | Solubility of IBU in Stearic acid [2, 3] | Solubility of IBU in COMPRITOL ® 888ATO [2, 4] | Solubility of IBU in Geleol mono and diglyceride NF [2, 4] | Solubility of IBU in Glyceryl monostearate [2, 4] | Solubility of IBU in PRECIROL ® ATO5 [2, 4] | Solubility of IBU in Stearic acid [2, 4] | Solubility of IBU in COMPRITOL ® 888ATO [2, 5] | Solubility of IBU in Geleol mono and diglyceride NF [2, 5] | Solubility of IBU in Glyceryl monostearate [2, 5] | Solubility of IBU in PRECIROL ® ATO5 [2, 5] | Solubility of IBU in Stearic acid [2, 5] | Solubility of IBU in COMPRITOL ® 888ATO [2, 6] | Solubility of IBU in Geleol mono and diglyceride NF [2, 6] | Solubility of IBU in Glyceryl monostearate [2, 6] | Solubility of IBU in PRECIROL ® ATO5 [2, 6] | Solubility of IBU in Stearic acid [2, 6]
